# System: melanin in the epidermis of ex vivo skin
# Assay: Whitening effect on ex vivo skin, Fontana-Masson staining with image analysis of luminosity histograms (Example 5)
# Format: cell-based, human
# Experimental: Comparative studies were conducted using 1% of a non fermented rapeseed peptide hydrolysate for 72 hours, or 1% arbutin, known for its whitening effect, or a combination of both on ex vivo skin.
# Skin biopsies are prepared as described in example 2. Four different conditions are tested: • Condition 1: control, no active ingredient is applied • Condition 2: Arbutin 1% is applied twice a day over a period of 72 hours • Condition 3: non fermented rapeseed extract is applied twice a day over a period of 72 hours • Condition 4: a combination of 1% of a non fermented rapeseed extract and 0.5% arbutin is applied twice a day over a period of 72 hours
# A quantitative evaluation of the presence of melanin in the epidermis of the skin samples is carried out histologically, under an optical microscope, using the Fontana-Masson staining method as described in example 2.
# To confirm visual observations and quantify the results, image analysis was performed using several image processing steps and analysis of luminosity histograms.
# All date were normalized to the length of the basal layer within a given histological section.
compound,measurement,setting,value
OC[C@H]1O[C@@H](Oc2ccc(O)cc2)[C@H](O)[C@@H](O)[C@@H]1O [arbutin],decrease in melanin content (normalized integrated values of histograms),"ex vivo skin, 1%, 72 hours",32%
same,"melanin content, visual observation (in words)","ex vivo skin, 1%, 72 hours",significant decrease in melanin content
same,% of decrease (melanin content vs control),"ex vivo skin, applied twice a day over 72 hours, 1% (combination 1%/0.5%)",−31.8%
same,Area under curve (luminosity histogram),"ex vivo skin, applied twice a day over 72 hours, 1% (combination 1%/0.5%), control 54517",46247
same,Area/length,"normalized to length of basal layer, applied twice a day over 72 hours, control 66.78",45.53 l/micron

# From patent publication US8309144B2, “Use of a cruciferous protein hydrolysate as a depigmentation agent or for a cosmetic and/or pharmaceutical composition” (ISP Investments Inc., priority 2004, dated 2012)
